Test results: patent US10358434B2, “2-(3-pyridinyl)-1H-benzimidazole derivative compound and medicament containing same” (NIHON MEDI-PHYSICS CO., LTD., priority 2014, dated 2019)

Key:
[1] = test system: human adrenal gland section expressing aldosterone-producing adenoma; test: In vitro autoradiography using human adrenal adenoma; assay type: binding
Description: From adrenal gland excised from a human patient for treatment of primary aldosteronism, a portion containing aldosterone-producing adenoma was removed and was then frozen. The frozen adrenal gland was embedded in an embedding agent for production of a frozen tissue section (Tissue-Tek O.C.T. Compound, Sakura Finetek Japan). Using a freezing microtome (CM3050S, Leica Microsystems), a 7-μm thin slice section, which is schematically shown in FIGS. 17(a) and 17(b), was produced, and was preserved at −20° C. before use. In FIGS. 17, 71a and 71b indicate aldosterone-producing adenomas, 72a and 72b indicate normal adrenal cortexes, and 73a and 73b indicate normal adrenal medullas. A 5-33 kBq/mL solution was prepared by adding a suitable amount of each of Compounds [^18F] 100, [^18F] 200, [^123I] 400, [^18F] 500, and [^123I] 601 to [^123I] 610, which were obtained by the methods described in Examples 2, 4, 7, 9, 11, 13, 15, 17, 19, 21, 23, 25, 27, and 29, or [^123I] IMTO to a phosphate-buffered physiological saline containing 1 w/v % bovine serum albumin (not containing fatty acid). The radioactivity concentration was measured using an autowell gamma system (ARC-7001, manufactured by Hitachi Aloka Medical, Ltd.). The section was immersed in the obtained sample solution for 10 minutes. For Compounds [^18F] 100, [^18F] 200, [^123I] 400, [^18F] 500, [^123I] 601 and [^123I] 602, the section shown in FIG. 17(a) was used, and for Compounds […] [^123I] IMTO, both sections shown in FIGS. 17(a) and (b) were used. Each sample solution was washed off, and the section was then exposed to an imaging plate (BAS-SR2040, manufactured by FUJIFILM Holdings Corporation) (IP) for 16-20 hours, and thereafter, an autoradiogram was obtained using a fluoro-image analyzer (FLA-7000, manufactured by FUJIFILM Holdings Corporation).
In order to quantitatively compare differences between images caused by ^123I and ^18F nuclides, a correction was made by calculating accumulation of radioactivity within the range of a region of interest (ROI) by means of integral calculation based on half-life, added radioactivity and IP contact time.
610. FIG. 18(b), FIG. 19(b), FIG. 20(b), FIG. 21(b), FIG. 22(a), FIG. 23(a), FIG. 24(a), FIG. 25(a), FIG. 26(a), FIG. 27(a), FIG. 28(a), FIG. 29(a), FIG. 30(a), and FIG. 31(a) each show an autoradiogram of [^123I] IMTO. […] 100, [^18F] 200, [^123I] 400, [^18F] 500, and [^123I] 601 to [^123I] […] The ROI having the same area as each other was established in a normal site and in a site in which aldosterone-producing adenoma had developed. Then, the PSL value (B1) indicating accumulation of radioactivity in the sites of normal adrenal cortexes 72a and 72b was compared with the PSL value (B2) indicating accumulation of radioactivity in the sites of aldosterone-producing adenomas 71a and 71b. In Table 7, the B1, B2 and B2/B1 values of [^18F] 100 indicate the mean values for the number of tests (n), respectively.

[2] = Plasma stability evaluation (TLC analysis); assay type: in vitro ADME; conditions: 37° C., 60 minutes
Experimental: Evaluation was made using a heparin-treated normal human plasma pool (Kohjin Bio Co., Ltd.). Compounds [^18F] 100, [^18F] 200, [^123I] 400, [^18F] 500, and [^123I] 601 to 610 obtained by the methods shown in Examples 2, 4, 7, 9, 11, 13, 15, 17, 19, 21, 23, 25, 27, and 29 were each added to the aforementioned human plasma (5 mL), and the obtained mixture was then incubated at 37° C. for 60 minutes. Thereafter, the mixture was centrifuged with addition of methanol, so that a deproteinization treatment was carried out. Thereafter, stability was evaluated by TLC analysis. As TLC analysis conditions, the TLC analysis conditions applied upon the above described synthesis of each compound were applied.

[3] = In vivo kinetics experiment (radioactivity distribution); parameters: species or system Wistar male rat; conditions: rat; for Adrenal gland/blood ratio of radioactivity accumulation / Adrenal gland/fat ratio of radioactivity accumulation / Adrenal gland/kidney ratio of radioactivity accumulation / Adrenal gland/liver ratio of radioactivity accumulation / Adrenal gland/muscle ratio of radioactivity accumulation / Adrenal gland/small intestine ratio of radioactivity accumulation / Radioactivity distribution Adrenal gland / Radioactivity distribution Bladder (including urine) / Radioactivity distribution Blood / Radioactivity distribution Fat / Radioactivity distribution Femur / Radioactivity distribution Heart / Radioactivity distribution Kidney / Radioactivity distribution Large intestine / Radioactivity distribution Liver / Radioactivity distribution Lung / Radioactivity distribution Muscle (lower limbs) / Radioactivity distribution Remaining whole body / Radioactivity distribution Small intestine / Radioactivity distribution Spleen / Radioactivity distribution Stomach / Radioactivity distribution Testis / Radioactivity distribution Whole brain: caudal vein
Experimental: Each of Compounds [^18F] 100, [^18F] 200, [^123I] 400, [^18F] 500, and [^123I] 601 to 610 obtained by the methods described in Examples 2, 4, 7, 9, 11, 13, 15, 17, 19, 21, 23, 25, 27, and 29, or [^123I] IMTO, was diluted with a physiological saline containing 1 w/v % ascorbic acid to prepare a solution to be administered. The above described compound (approximately 1 to 3.7 MBq) was injected into the caudal vein of a Wistar male rat (9 weeks old) under anesthesia with a mixed gas of isoflurane/air, and ten minutes after the injection, the rat was sacrificed by exsanguination. From the thus sacrificed rat, blood and organs (heart, lung, stomach, liver, spleen, small intestine, large intestine, kidney, bladder (including urine), muscle (lower limbs), brain, adrenal gland, testis, fat, femur, or thyroid gland) were excised, and the weights thereof were then measured. Thereafter, radioactivity was measured in the blood, the individual excised organs, and the remaining whole body. Further, 30 and 60 minutes after the administration, the same operations as those described above were carried out. […] The symbol “n” in Tables 9 to 23 indicates the number of rats used. In addition, Tables 9 to 23 also show the ratio of radioactivity accumulation in adrenal grand (% ID/g) to radioactivity accumulation in each of blood, liver, kidney, small intestine, muscle and fat (% ID/g).

## Fc1cc2nc(-c3cncc(Cn4ccnc4)c3)n(CC[18F])c2cc1Br [[^18F] 200, 6-Bromo-5-fluoro-1-(2-[^18F]fluoroethyl)-2-[5-(imidazol-1-ylmethyl)pyridin-3-yl]benzimidazole]
[1]; FIGS. 18 to 31
  accumulation of radioactivity in adrenal gland section (autoradiogram): accumulation of radioactivity was selectively observed in a region in which aldosterone-producing adenoma had been pathologically observed
[1]; section of FIG. 17(a)
  B2/B1 accumulation ratio: 3.34
[1]; section of FIG. 17(a), site 71a
  B2 (PSL value, aldosterone-producing adenoma): 4409
[1]; section of FIG. 17(a), site 72a
  B1 (PSL value, normal adrenal cortex): 1321
[2]
  stability in human plasma: hardly metabolized and decomposed in the plasma
[2]; TLC analysis
  Radiochemical purity after incubation in human plasma: 92%
[3]; Tables 9 to 22
  accumulation of radioactivity in adrenal gland vs blood and peripheral tissues: high accumulation of radioactivity in adrenal gland was observed, in comparison to in blood and peripheral tissues
[3]; 10 min after administration
  Adrenal gland/blood ratio of radioactivity accumulation: 100.87 ± 36.73
  Adrenal gland/fat ratio of radioactivity accumulation: 174.42 ± 63.32
  Adrenal gland/kidney ratio of radioactivity accumulation: 11.40 ± 5.81
  Adrenal gland/liver ratio of radioactivity accumulation: 2.68 ± 1.01
  Adrenal gland/muscle ratio of radioactivity accumulation: 88.35 ± 26.16
  Adrenal gland/small intestine ratio of radioactivity accumulation: 13.32 ± 3.08
  Radioactivity distribution Adrenal gland: 14.35 ± 4.09 % ID/g
  Radioactivity distribution Bladder (including urine): 1.28 ± 0.11 % ID/g
  Radioactivity distribution Blood: 0.15 ± 0.01 % ID/g
  Radioactivity distribution Fat: 0.08 ± 0.02 % ID/g
  Radioactivity distribution Femur: 0.38 ± 0.03 % ID/g
  Radioactivity distribution Heart: 0.32 ± 0.03 % ID/g
  Radioactivity distribution Kidney: 1.39 ± 0.39 % ID/g
  Radioactivity distribution Large intestine: 0.16 ± 0.01 % ID/g
  Radioactivity distribution Liver: 5.54 ± 0.78 % ID/g
  Radioactivity distribution Lung: 0.54 ± 0.07 % ID/g
  Radioactivity distribution Muscle (lower limbs): 0.16 ± 0.00 % ID/g
  Radioactivity distribution Remaining whole body: 0.15 ± 0.00 % ID/g
  Radioactivity distribution Small intestine: 1.07 ± 0.07 % ID/g
  Radioactivity distribution Spleen: 1.49 ± 0.32 % ID/g
  Radioactivity distribution Stomach: 0.36 ± 0.04 % ID/g
  Radioactivity distribution Testis: 0.04 ± 0.00 % ID/g
  Radioactivity distribution Whole brain: 0.02 ± 0.00 % ID/g
[3]; 30 min after administration
  Adrenal gland/blood ratio of radioactivity accumulation: 145.45 ± 14.69
  Adrenal gland/fat ratio of radioactivity accumulation: 425.84 ± 103.54
  Adrenal gland/kidney ratio of radioactivity accumulation: 17.00 ± 1.67
  Adrenal gland/liver ratio of radioactivity accumulation: 5.06 ± 0.59
  Adrenal gland/muscle ratio of radioactivity accumulation: 158.65 ± 18.59
  Adrenal gland/small intestine ratio of radioactivity accumulation: 8.44 ± 1.36
  Radioactivity distribution Adrenal gland: 22.61 ± 2.12 % ID/g
  Radioactivity distribution Bladder (including urine): 2.82 ± 1.27 % ID/g
  Radioactivity distribution Blood: 0.16 ± 0.00 % ID/g
  Radioactivity distribution Fat: 0.06 ± 0.02 % ID/g
  Radioactivity distribution Femur: 0.40 ± 0.10 % ID/g
  Radioactivity distribution Heart: 0.33 ± 0.02 % ID/g
  Radioactivity distribution Kidney: 1.33 ± 0.03 % ID/g
  Radioactivity distribution Large intestine: 0.27 ± 0.04 % ID/g
  Radioactivity distribution Liver: 4.48 ± 0.13 % ID/g
  Radioactivity distribution Lung: 0.48 ± 0.04 % ID/g
  Radioactivity distribution Muscle (lower limbs): 0.14 ± 0.01 % ID/g
  Radioactivity distribution Remaining whole body: 0.13 ± 0.02 % ID/g
  Radioactivity distribution Small intestine: 2.70 ± 0.21 % ID/g
  Radioactivity distribution Spleen: 1.09 ± 0.25 % ID/g
  Radioactivity distribution Stomach: 0.56 ± 0.06 % ID/g
  Radioactivity distribution Testis: 0.05 ± 0.04 % ID/g
  Radioactivity distribution Whole brain: 0.01 ± 0.00 % ID/g
[3]; 60 min after administration
  Adrenal gland/blood ratio of radioactivity accumulation: 168.33 ± 36.80
  Adrenal gland/fat ratio of radioactivity accumulation: 417.70 ± 25.29
  Adrenal gland/kidney ratio of radioactivity accumulation: 18.05 ± 3.00
  Adrenal gland/liver ratio of radioactivity accumulation: 6.87 ± 1.26
  Adrenal gland/muscle ratio of radioactivity accumulation: 180.41 ± 24.02
  Adrenal gland/small intestine ratio of radioactivity accumulation: 5.43 ± 1.42
  Radioactivity distribution Adrenal gland: 21.73 ± 3.25 % ID/g
  Radioactivity distribution Bladder (including urine): 5.83 ± 2.21 % ID/g
  Radioactivity distribution Blood: 0.13 ± 0.01 % ID/g
  Radioactivity distribution Fat: 0.05 ± 0.00 % ID/g
  Radioactivity distribution Femur: 0.28 ± 0.00 % ID/g
  Radioactivity distribution Heart: 0.27 ± 0.02 % ID/g
  Radioactivity distribution Kidney: 1.21 ± 0.04 % ID/g
  Radioactivity distribution Large intestine: 0.41 ± 0.06 % ID/g
  Radioactivity distribution Liver: 3.18 ± 0.23 % ID/g
  Radioactivity distribution Lung: 0.39 ± 0.09 % ID/g
  Radioactivity distribution Muscle (lower limbs): 0.12 ± 0.00 % ID/g
  Radioactivity distribution Remaining whole body: 0.12 ± 0.00 % ID/g
  Radioactivity distribution Small intestine: 4.13 ± 0.83 % ID/g
  Radioactivity distribution Spleen: 0.68 ± 0.05 % ID/g
  Radioactivity distribution Stomach: 0.65 ± 0.16 % ID/g
  Radioactivity distribution Testis: 0.09 ± 0.00 % ID/g
  Radioactivity distribution Whole brain: 0.01 ± 0.00 % ID/g
